Laboratory results reported in ChEMBL document CHEMBL3046664, “Synthesis in vitro/in vivo evaluation and in silico physicochemical study of prodrug approach for brain targeting of alkylating agent” (Med Chem Res, 2013).

How the values were obtained:
[1] = Stability of the compound assessed as decomposition at 4 degC after 60 days by UV spectrophotometric analysis; format: physicochemical; conditions: read-out: Drug degradation
Blood [2] = assay: Half life in 100% Rattus norvegicus (rat) whole blood assessed as conversion to 1-Benzyl-3-{(bis(2-chloroethyl)amino)carbamoyl}pyridinium bromide at 10 x 10^-4 M by UV-spectrophotometric analysis; format: ADME, tissue-based; conditions: 1000 µM
[3] = Stability of the compound assessed as decomposition at 25 degC after 60 days by UV spectrophotometric analysis; format: physicochemical; conditions: read-out: Drug degradation
Brain [4] = assay: Half life in Rattus norvegicus (rat) brain homogenate assessed as conversion to 1-Benzyl-3-{(bis(2-chloroethyl)amino)carbamoyl}pyridinium bromide at 6.25 x 10^-4 M by UV-spectrophotometric analysis; format: ADME, tissue-based; conditions: 625 µM
[5] = Half life in silver nitrate solution assessed as conversion to 1-Benzyl-3-{(bis(2-chloroethyl)amino)carbamoyl}pyridinium bromide at 5% after 2 min by UV-Visible spectrophotometric analysis; format: physicochemical
Blood [6] = assay: Half life in 100% Homo sapiens (human) whole blood assessed as conversion to 1-Benzyl-3-{(bis(2-chloroethyl)amino)carbamoyl}pyridinium bromide at 10 x 10^-4 M by UV-spectrophotometric analysis; format: ADME, tissue-based; conditions: 1000 µM
Blood [7] = assay: Half life in 100% Homo sapiens (human) whole blood assessed as conversion to 1-(4-Nitrobenzyl-3-{(bis(2-chloroethyl)amino)carbamoyl}pyridinium bromide at 10 x 10^-4 M by UV-spectrophotometric analysis; format: ADME, tissue-based; conditions: 1000 µM
Brain [8] = assay: Prodrug conversion in Sprague-Dawley Rattus norvegicus (rat) brain homogenate assessed as 1-(4-Nitrobenzyl-3-{(bis(2-chloroethyl)amino)carbamoyl}pyridinium bromide level at 40 mg/kg, iv measured at 150 min by UV-spectrophotometric analysis; format: ADME, organism-based; set-up: dose 40 mg/kg, route intravenous; conditions: in vivo, 2.5 h
Blood [9] = assay: Prodrug conversion in Sprague-Dawley Rattus norvegicus (rat) blood assessed as 1-(4-Nitrobenzyl-3-{(bis(2-chloroethyl)amino)carbamoyl}pyridinium bromide level at 40 mg/kg, iv measured at 60 min by UV-spectrophotometric analysis; format: ADME, organism-based; set-up: dose 40 mg/kg, route intravenous; conditions: in vivo, 1 h
Brain [10] = assay: Prodrug conversion in Sprague-Dawley Rattus norvegicus (rat) brain homogenate assessed as 1-(4-Nitrobenzyl-3-{(bis(2-chloroethyl)amino)carbamoyl}pyridinium bromide level at 40 mg/kg, iv measured at 100 min by UV-spectrophotometric analysis; format: ADME, organism-based; set-up: dose 40 mg/kg, route intravenous; conditions: in vivo
Blood [11] = assay: Prodrug conversion in Sprague-Dawley Rattus norvegicus (rat) blood assessed as 1-(4-Nitrobenzyl-3-{(bis(2-chloroethyl)amino)carbamoyl}pyridinium bromide level at 40 mg/kg, iv measured at 150 min by UV-spectrophotometric analysis; format: ADME, organism-based; set-up: dose 40 mg/kg, route intravenous; conditions: in vivo, 2.5 h
Brain [12] = assay: Half life in Rattus norvegicus (rat) brain homogenate assessed as conversion to 1-(4-Nitrobenzyl-3-{(bis(2-chloroethyl)amino)carbamoyl}pyridinium bromide at 6.25 x 10^-4 M by UV-spectrophotometric analysis; format: ADME, tissue-based; conditions: 625 µM
[13] = Half life in silver nitrate solution assessed as conversion to1-(4-Nitrobenzyl-3-{(bis(2-chloroethyl)amino)carbamoyl}pyridinium bromide at 5% after 2 min by UV-Visible spectrophotometric analysis; format: physicochemical
Blood [14] = assay: Prodrug conversion in Sprague-Dawley Rattus norvegicus (rat) blood assessed as 1-(4-Nitrobenzyl-3-{(bis(2-chloroethyl)amino)carbamoyl}pyridinium bromide level at 40 mg/kg, iv measured at 15 min by UV-spectrophotometric analysis; format: ADME, organism-based; set-up: dose 40 mg/kg, route intravenous; conditions: in vivo, 0.25 h
Blood [15] = assay: Half life in 100% Rattus norvegicus (rat) whole blood assessed as conversion to 1-(4-Nitrobenzyl-3-{(bis(2-chloroethyl)amino)carbamoyl}pyridinium bromide at 10 x 10^-4 M by UV-spectrophotometric analysis; format: ADME, tissue-based; conditions: 1000 µM
Blood [16] = assay: Prodrug conversion in Sprague-Dawley Rattus norvegicus (rat) blood assessed as assessed as 1-(4-Nitrobenzyl-3-{(bis(2-chloroethyl)amino)carbamoyl}pyridinium bromide level at 40 mg/kg, iv measured at 100 min by UV-spectrophotometric analysis; format: ADME, organism-based; set-up: dose 40 mg/kg, route intravenous; conditions: in vivo
Blood [17] = assay: Prodrug conversion in Sprague-Dawley Rattus norvegicus (rat) blood assessed as 1-(4-Nitrobenzyl-3-{(bis(2-chloroethyl)amino)carbamoyl}pyridinium bromide level at 40 mg/kg, iv measured at 30 min by UV-spectrophotometric analysis; format: ADME, organism-based; set-up: dose 40 mg/kg, route intravenous; conditions: in vivo, 0.5 h
Brain [18] = assay: Prodrug conversion in Sprague-Dawley Rattus norvegicus (rat) brain homogenate assessed as 1-(4-Nitrobenzyl-3-{(bis(2-chloroethyl)amino)carbamoyl}pyridinium bromide level at 40 mg/kg, iv measured at 30 min by UV-spectrophotometric analysis; format: ADME, organism-based; set-up: dose 40 mg/kg, route intravenous; conditions: in vivo, 0.5 h
Brain [19] = assay: Prodrug conversion in Sprague-Dawley Rattus norvegicus (rat) brain homogenate assessed as 1-(4-Nitrobenzyl-3-{(bis(2-chloroethyl)amino)carbamoyl}pyridinium bromide level at 40 mg/kg, iv measured at 60 min by UV-spectrophotometric analysis; format: ADME, organism-based; set-up: dose 40 mg/kg, route intravenous; conditions: in vivo, 1 h
Brain [20] = assay: Prodrug conversion in Sprague-Dawley Rattus norvegicus (rat) brain homogenate assessed as 1-(4-Nitrobenzyl-3-{(bis(2-chloroethyl)amino)carbamoyl}pyridinium bromide level at 40 mg/kg, iv measured at 15 min by UV-spectrophotometric analysis; format: ADME, organism-based; set-up: dose 40 mg/kg, route intravenous; conditions: in vivo, 0.25 h
[21] = Half life of the compound after 30 min by UV-spectrophotometric analysis in presence of 4-(4-nitrobenzyl)pyridine; format: physicochemical

Compound `O=C(C1=CN(Cc2ccccc2)C=CC1)N(CCCl)CCCl` has a degraded at 1440 h [1] of 9%, a t1/2 (Blood [2]) of 29 min and a degraded at 1440 h [3] of 18%. It also gave a t1/2 (Brain [4]) of 25 min, a t1/2 [5] of 5 min and a t1/2 (Blood [6]) of 36 min.
Compound `O=C(C1=CN(Cc2ccc([N+](=O)[O-])cc2)C=CC1)N(CCCl)CCCl` has a t1/2 (Blood [7]) of 39 min, a degraded at 1440 h [1] of 3% and a Drug metabolism (Brain [8]) of 42 µg/g. The Drug metabolism (Blood [9]) was 35 µg/mL, the degraded at 1440 h [3] was 8% and the Drug metabolism (Brain [10]) was 27 µg/g. It also gave a Drug metabolism (Blood [11]) of 0 µg/mL, a t1/2 (Brain [12]) of 31 min and a t1/2 [13] of 7 min. The Drug metabolism (Blood [14]) was 60 µg/mL, the t1/2 (Blood [15]) was 34 min and the Drug metabolism (Blood [16]) was 12 µg/mL. The Drug metabolism (Blood [17]) was 48 µg/mL, the Drug metabolism (Brain [18]) was 9 µg/g and the Drug metabolism (Brain [19]) was 17 µg/g. It also gave a Drug metabolism (Brain [20]) of 4 µg/g.
Compound `O=C(c1ccc[n+](Cc2ccccc2)c1)N(CCCl)CCCl.[Br-]` has a half-life [21] of 14.7 min.
`O=C(c1ccc[n+](Cc2ccc([N+](=O)[O-])cc2)c1)N(CCCl)CCCl.[Br-]` gave a half-life [21] of 8.4 min.
